These results are taken from patent publication US20110321198A1, “POLYPEPTIDE HAVING FUNCTION FOR DELAYING ANTHESIS OR SUPPRESSING GROWTH, POLYNUCLEOTIDE ENCODING THE SAME, AND USE THEREOF” (priority 2009, published 2011).

Entries after “also recorded” stand apart in the source; their conditions may differ.

In assay [1] the test system is Arabidopsis thaliana wild-type (Col). As to the kind of experiment: Germination efficiency under paclobutrazol treatment, wild-type. Type of assay: in vivo. The note with it: FIG. 10. The source says:
(§1) It is generally known that GA is involved in germination as well as hypocotyl growth as shown in Example 5. Hypocotyl growth or adult heights are associated with cell elongation. Typically, GA, auxin and brassinosteroid […] are involved in cell elongation while plant hormones such as GA and ABA are responsible for germination. As for the response to GA, its molecular mechanisms are different for different phenomena. Thus, in order to support the fact that the delayed flowering and/or dwarfism phenotype is attributed to the deficient response of sil1-1D to GA, the wild-type (Col) and sil1-1D were treated with paclobutrazol (PAC), which inhibits the biosynthesis of GA, and their germination efficiencies were compared. […] Generally, when GA biosynthesis was inhibited by PAC, germination efficiency was lowered, with a lowered response to GA.

Assay [2] has as its system sil1-1D mutant. As to the kind of experiment: Germination efficiency under paclobutrazol treatment, sil1-1D mutant. Type of assay: in vivo, Arabidopsis thaliana. The note with it: FIG. 10.
Excerpt: as §1

Assay [3] has as its system sil1-1D mutant. The assay can be described thus: Hypocotyl length response to GA, sil1-1D mutant. Type of assay: in vivo, Arabidopsis thaliana. The note with it: various concentrations of GA, white light, compared to wild-type, FIG. 9. Here is the method: (§2) In most cases, these phenomena occur when the plant becomes low in GA response or GA biosynthesis level. Thus, the response of sil1-1D to GA was examined. In this regard, hypocotyl lengths of 15 plantlets were measured after they were grown in ½ Gamborg B5 media (Duchefa) containing 1% sucrose and various concentrations of GA under white light.

The test system of assay [4] is Arabidopsis thaliana wild-type (Col). The assay can be described thus: Hypocotyl length response to GA, wild-type. The class given is in vivo. The note with it: various concentrations of GA, white light, FIG. 9. On the procedure: as §2

`CC(C)(C)[C@@H](O)[C@@H](Cc1ccc(Cl)cc1)n1cncn1` (racemic) [PAC, paclobutrazol]: the germination in assay [1] (wild-type (Col), 0.35 mg/L PAC) is recorded as approximately 100%; in the assay on sil1-1D mutant [2] (0.35 mg/L PAC), “about 50%”. In addition, the germination efficiency entry in assay [1] (wild-type, increasing PAC concentration) is recorded as “decreased with increasing of PAC concentration”; in the assay on sil1-1D mutant [2] (increasing PAC concentration), “decreased with increasing of PAC concentration”.

In the case of gibberellin [GA], the hypocotyl growth entry is listed as “short hypocotyls in response to GA; also recorded: significantly reduced” in the assay on sil1-1D mutant [3] and “increased with increasing of GA concentration” in assay [4].
